Where a SMILES comes first, the peptide text is derived from it. Bridges are numbered along the chain shown (N, C = ends).

The values that follow come from patent US20130123460A1, “PEPTIDE FOR IMPROVING BIOSTABILITY OF BIOACTIVE SUBSTANCE, AND BIOACTIVE SUBSTANCE HAVING IMPROVED BIOSTABILITY” (priority 2010, published 2013).

Data set [1] is described as follows: Plasma stability of somatostatin peptide complex (remaining rate in rat plasma). The conditions noted are these: for remaining at 8 h, 0.5 μmol/L / remaining at 48 h, 0.5 μmol/L: SD, rat, plasma.
Description: (§1) The plasma stability was evaluated in vitro, in order to inspect the biostability of the somatostatin peptide complex.
(§2) SD rats were anesthetized with diethyl ether, whole blood was collected, and a plasma fraction was separated therefrom. The somatostatin or somatostatin peptide complex was added to the plasma so that the final concentration thereof was 0.5 μmol/L, and the mixture was incubated at 37° C. A sample was recovered after 0, 8 or 48 hours, and a remaining rate was evaluated by an HPLC/MS measurement of an amount of the somatostatin or somatostatin peptide complex.
The target in data set [2] is T1, endogenous SSTR 5 (Mus musculus, UniProt O08858).
T1 construct: expressing an endogenous SSTR 5; endogenous in cells; host or cells: MIN 6 mouse insulinoma cells (obtained from a person)
T1 sequence (O08858 1-362): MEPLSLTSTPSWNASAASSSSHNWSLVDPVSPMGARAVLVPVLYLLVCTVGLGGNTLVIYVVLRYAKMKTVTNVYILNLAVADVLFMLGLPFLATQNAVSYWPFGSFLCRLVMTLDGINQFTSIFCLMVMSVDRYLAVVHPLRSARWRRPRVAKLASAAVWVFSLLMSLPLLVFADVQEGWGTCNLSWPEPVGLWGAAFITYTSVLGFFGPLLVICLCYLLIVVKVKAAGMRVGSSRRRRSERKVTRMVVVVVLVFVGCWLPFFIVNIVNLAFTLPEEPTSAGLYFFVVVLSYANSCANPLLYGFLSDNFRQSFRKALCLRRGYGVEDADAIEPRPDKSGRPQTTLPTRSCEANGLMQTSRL
In words: Suppressibility of insulin secretion in MIN 6 cells. In kind it is cell-based. Particulars: 20 mM glucose, 1-1000 nM. On the procedure: The suppressibility of insulin secretion was evaluated using MIN 6 (obtained from a person) which was an insulinoma cell derived from a mouse, expressing an endogenous SSTR 5. MIN 6 was seeded on a multi-plate, which was cultivated at 37° C. for 48 hours. […] A supernatant thereof was recovered, and an amount of insulin secreted was measured. The measurement of the insulin was performed in an enzyme-linked immunosorbent assay (ELISA), and an absorbance was measured at 450 nm (a sub-wavelength: 620 nm) after the addition of a substrate.
In this experiment, the activity evaluations of the native SRIF (Comparative Example 15) and the GAm (28-44)-SRIF-NH2(Example 29) were performed in a concentration of 1, 3, 10, 30, 100, 300, and 1000 nM, and the maximum suppression rate (%) of the insulin secretion was calculated. The maximum suppression rate (%) of the insulin secretion in the somatostatin peptide complex was calculated according to the following formula. Maximum Suppression Rate (%) of Insulin Secretion (%)=[{(the maximum value of the suppression of the insulin secretion in the SRIF peptide complex)/(the maximum value of the suppression of the insulin secretion in the native SRIF)]×100

The nature of data set [3]: in vitro. The conditions noted are these: SD, rat, plasma.
Description: as §1, §2
Data set [4] relates to db/db mice. In words: Sustained blood glucose-lowering effect in type 2 diabetes mellitus model mice. Type of data set: in vivo. The conditions noted are these: subcutaneous, 50 nmol/kg.
Description: The improvement of the biostability was evaluated using a duration time of blood glucose-lowering effect in vivo as an indicator. […] The blood glucose level was measured using Glucose Test Wako (Wako Pure Chemical Industries, Ltd.).
Setting [5] is: somatostatin complexes, rat plasma, 0.5 μmol/L, 37° C.

In the case of `C[C@H](N)C(=O)NCC(=O)N[C@H]1CSSC[C@@H](C(N)=O)NC(=O)[C@H](CO)NC(=O)[C@H]([C@@H](C)O)NC(=O)[C@H](Cc2ccccc2)NC(=O)[C@H]([C@@H](C)O)NC(=O)[C@H](CCCCN)NC(=O)[C@H](Cc2c[nH]c3ccccc23)NC(=O)[C@H](Cc2ccccc2)NC(=O)[C@H](Cc2ccccc2)NC(=O)[C@H](CC(N)=O)NC(=O)[C@H](CCCCN)NC1=O` [Comparative Example 15, SRIF(1-14)-NH2, reference compound], in data set [1], the share remaining (in general, the share of the starting amount still present when the sample was taken) at 8 h, 0.5 μmol/L was 0% and the fraction remaining at 48 h, 0.5 μmol/L is 0%. Also, in data set [1] (setting [5]), the “Remaining rate in plasma after 8 hours (%)” value was “completely decomposed”. Also, the “Suppression rate of insulin secretion (%), maximum, relative to native SRIF” value in data set [2] was 100%.

In data set [3], `CC[C@H](C)[C@H](NC(=O)[C@H](CCC(=O)O)NC(=O)[C@H](CC(=O)O)NC(=O)[C@@H](NC(=O)[C@H](CC(C)C)NC(=O)[C@H](C)NC(=O)[C@H](CCCCN)NC(=O)[C@@H](NC(=O)CNC(=O)[C@H](CCC(=O)O)NC(=O)[C@@H](NC(=O)[C@@H](NC(=O)[C@H](CCCCN)NC(=O)[C@H](C)NC(=O)[C@@H]1CSSC[C@H](NC(=O)CNC(=O)[C@H](C)N)C(=O)N[C@@H](CCCCN)C(=O)N[C@@H](CC(N)=O)C(=O)N[C@@H](Cc2ccccc2)C(=O)N[C@@H](Cc2ccccc2)C(=O)N[C@@H](Cc2c[nH]c3ccccc23)C(=O)N[C@@H](CCCCN)C(=O)N[C@@H]([C@@H](C)O)C(=O)N[C@@H](Cc2ccccc2)C(=O)N[C@@H]([C@@H](C)O)C(=O)N[C@@H](CO)C(=O)N1)[C@@H](C)O)C(C)C)C(C)C)[C@@H](C)CC)C(=O)N[C@@H](CC(C)C)C(=O)N[C@@H](C)C(=O)N[C@@H](C)C(N)=O` [Example 28, SRIF(1-14)-GAm(28-44)-NH2] (H-AGCKNFFWKTFTSCAKTVEGVKALIDEILAA-NH2; disulfide 3-14; N-terminus assumed) gave a share remaining at 8 h, 0.5 μmol/L of 56% and a share remaining at 48 h, 0.5 μmol/L of 0%.

In data set [1], `CC[C@H](C)[C@H](NC(=O)[C@H](CCC(=O)O)NC(=O)[C@H](CC(=O)O)NC(=O)[C@@H](NC(=O)[C@H](CC(C)C)NC(=O)[C@H](C)NC(=O)[C@H](CCCCN)NC(=O)[C@@H](NC(=O)CNC(=O)[C@H](CCC(=O)O)NC(=O)[C@@H](NC(=O)[C@@H](NC(=O)[C@H](CCCCN)NC(=O)[C@H](C)N)[C@@H](C)O)C(C)C)C(C)C)[C@@H](C)CC)C(=O)N[C@@H](CC(C)C)C(=O)N[C@@H](C)C(=O)N[C@@H](C)C(=O)N[C@@H](C)C(=O)NCC(=O)N[C@H]1CSSC[C@@H](C(N)=O)NC(=O)[C@H](CO)NC(=O)[C@H]([C@@H](C)O)NC(=O)[C@H](Cc2ccccc2)NC(=O)[C@H]([C@@H](C)O)NC(=O)[C@H](CCCCN)NC(=O)[C@H](Cc2c[nH]c3ccccc23)NC(=O)[C@H](Cc2ccccc2)NC(=O)[C@H](Cc2ccccc2)NC(=O)[C@H](CC(N)=O)NC(=O)[C@H](CCCCN)NC1=O` [Example 29, GAm(28-44)-SRIF(1-14)-NH2] (H-AKTVEGVKALIDEILAAAGCKNFFWKTFTSC-NH2; disulfide 20-31; N-terminus assumed) registered a fraction remaining at 8 h, 0.5 μmol/L of 80% and a share remaining at 48 h, 0.5 μmol/L of 23%. In addition, the “Remaining rate in plasma after 8 hours (%)” value in data set [1] (setting [5]) amounted to 80%. Also, the “Remaining rate in plasma after 48 hours (%)” value in data set [1] (somatostatin complexes, rat plasma, 0.5 μmol/L, 37° C., 48 hours) came to 23%. In data set [2], the “Suppression rate of insulin secretion (%), maximum, relative to native SRIF” value turned out to be 90%.

In the case of “[Ser8]-GLP-1(7-36)-NH2 [Comparative Example 2]”, the “Time after administration at which the glucose-lowering effect disappeared” value in data set [4] was “two hours”.
